Source: patent US12215123B2, “Cordycepin-based derivatized compound with anti-tumor effect” (NANJING TECH UNIVERSITY, priority 2022, dated 2025)
Counter-ions that a name gives are not always drawn. Like-named read-outs stand apart in the source and are kept apart here.

Legend:
[1] = system: small cell lung cancer cell line H446; assay: MTT proliferation, small cell lung cancer cell line H446; assay type: cell-based; details: MTT, 72 hours, H446; read-out: IC50 (μM) of compounds in small cell lung cancer cells, H446
Procedure: (§1) The method for determining inhibitory activities of the compounds on the proliferation of tumor cells by an MTT method is as follows: a bottle of cells in a good state in an exponential growth phase is added with 0.25% trypsin digestive juice, the digestion makes adherent cells fall off, with 2 to 4×10^4 cells/mL, and a cell suspension is prepared. The cell suspension is inoculated on a 96-well plate, with 90 μL/well, and cultured in a constant-temperature CO2 incubator for 24 hours. The prepared compounds are added for testing, with 10 μL/well, and cultured for 72 hours. An MTT reagent is added into a 96-well plate, with 10 μL/well, and reacts in an incubator for 4 hours to absorb a supernatant, and then dimethyl sulfoxide is added, with 100 μL/well. After a crystal is dissolved, an absorbance of each well at a wavelength of 570 nm is measured by an enzyme-linked immunosorbent assay instrument, and a cell inhibition rate is calculated. An S curve is made with a compound concentration and a corresponding inhibition rate. Therefore, IC50 of a corresponding compound is obtained.
(§2) Anti-tumor dose-effect relationship curves of cordycepin and compounds 1, 2, 4, 5, 7, 8, 10, 12, 16, 18, 21, 23, 24, 35 and 38 in small cell lung cancer cell lines H1048, H446 and H69 were analyzed by an MTT experimental method.

[2] = system: MC-38 colon cancer cells; assay: Mouse transplanted colon cancer model; assay type: in vivo, C57BL/6j nude mice; details: MC-38 transplanted mice, 28 days, 500 ug/time/animal intragastric (compound daily, antibody every 4 days); control 1,300 mm^3
Procedure: (§3) The feeding of the mouse model in the drug evaluation follows that: mice are fed and treated in a laminar flow cabinet, with 5 nude mice in each cage, drinking water and feedstuffs are added once every 3 days, and paddings are replaced once a week; a number of mice kept in each cage is no more than 5, the mice in separate cages are kept in groups as far as possible, and the mice should not be kept in a single cage; the animal management must conform to the relevant national standards on animal feeding management, and the behavioral needs of animals should be concerned at the same time to avoid unnecessary stress; the normal physiological and behavioral needs of animals, such as defecation, urination, constant body temperature maintenance, normal activities, posture adjustment and reproduction are met; good ventilation and dry animals are kept; the animals can access to drinking water and food at will, and supplementation, replacement and cleaning operations are easily carried out; a solid and safe environment is provided to avoid accidents of animals, such as escaping or limb trapping in a gap; the animals are avoided from being damaged by sharp edges or protrusions; and the animals are not disturbed during observation.
A mouse transplanted colon cancer model was established and a drug was evaluated. […]

[3] = system: small cell lung cancer cell line H69; assay: MTT proliferation, small cell lung cancer cell line H69; assay type: cell-based; details: MTT, 72 hours, H69; read-out: IC50 (μM) of compounds in small cell lung cancer cells, H69
Procedure: as §1, §2

[4] = system: gastric cancer cell line BGC-823; assay: MTT proliferation, gastric cancer cell line BGC-823; assay type: cell-based; details: read-out: IC50 (μM) in gastric cancer cells, BGC-823
Procedure: as §1
(§4) Anti-tumor dose-effect relationship curves of the cordycepin and 40 compounds prepared in gastric cancer cell lines AGS and BGC-823 were analyzed by an MTT experimental method.

[5] = system: gastric cancer cell line AGS; assay: MTT proliferation, gastric cancer cell line AGS; assay type: cell-based; details: read-out: IC50 (μM) in gastric cancer cells, AGS
Procedure: as §1, §4

[6] = system: small cell lung cancer cell line H1048; assay: MTT proliferation, small cell lung cancer cell line H1048; assay type: cell-based; details: MTT, 72 hours, H1048; read-out: IC50 (μM) of compounds in small cell lung cancer cells, H1048
Procedure: as §1, §2

[7] = system: B16-F10 melanoma cells; assay: Mouse transplanted melanoma model; assay type: in vivo, C57BL/6j nude mice; details: B16-F10 transplanted mice; for tumor volume: intragastric 500 ug/time/animal every other day, 24 days, blank 1760 mm^3
Procedure: as §3
A mouse transplanted melanoma model was established and a drug was evaluated. 2.5×10^5 B16-F10 melanoma cells were suspended in 100 μL of PBS to be inoculated into an outer side of thigh of left lower limb of C57BL/6j nude mice. One week later, when the transplanted tumor reached about 100 mm^3, the mice were randomly divided into ten groups, with 10 mice in each group, comprising a blank control group, a cordycepin group, a compound 13 group, a compound 14 group, a compound 17 group, a compound 19 group, a compound 22 group, a compound 26 group, a compound 29 group and a compound 34 group respectively. The blank control group was intragastrically administrated with a nutritional agent such as a corn steep liquor and DMSO as a solvent control every day for 24 consecutive days, and the compound groups were intragastrically administrated with corresponding compounds (500 ug/time/animal in all cases) every other day for 24 consecutive days. […] The mice were killed after the experiment, blood and corresponding tissue samples were collected, tumor bodies were immediately photographed and weighed, and some tumor tissues were fixed in a formalin solution to be further detected. Two vertical diameters (length and width) of the transplanted tumor were measured with a caliper every two days to calculate a size of the transplanted tumor, and a tumor value was calculated according to a formula: tumor volume (mm^3)=[…].

[8] = Homo sapiens, MTT, 72 hours, BGC-823

CC(C)OC(=O)[C@H](C)NP(=O)(COCC1CC(C#N)C(n2cnc3c(N)ncnc32)O1)Oc1ccccc1 (stereo partly drawn) [Compound 16]
IC50 [1]: 19.1 µM | tumor size [2]: 480 mm^3 | IC50 [3]: 23.3 µM | IC50 ([4]; MTT, 72 hours, BGC-823): 0.19 µM | IC50 ([5]; MTT, 72 hours, AGS): 0.14 µM | IC50 [6]: 25.5 µM

CC(C)(C)C(=O)OCOP(=O)(COC[C@@H]1CC(O)[C@H](n2cnc3c(N)nc(S)nc32)O1)OCOC(=O)C(C)(C)C (stereo partly drawn) [Compound 19]
IC50 [4, 8]: 0.76 µM | IC50 ([5]; MTT, 72 hours, AGS): 0.46 µM | tumor volume [7]: about 240 mm^3

CC(C)OC(=O)C(C)NP(=O)(COC[C@H]1O[C@@H](n2cnc3c(N)ncnc32)C(O)[C@H]1N=[N+]=[N-])Oc1ccccc1 (stereo partly drawn) [Compound 27, isopropyl((((5-(6-amino-9H-purine-9-yl)-3-azide-4-hydroxytetrahydrofuran-2-yl)methoxy)methyl)(phenoxy)phosphoryl)alanine ester]
IC50 ([4]; Homo sapiens, BGC-823, 72 h): 10.2 µM | IC50 ([5]; 72 h): 8.42 µM | inhibition of melanoma ([7]; same method as Embodiment 46): the Same Inhibition Effect as a Compound 26

COC(=O)C(C)NP(=O)(Oc1ccccc1)OC1C[C@@H](CO)O[C@H]1n1cnc2c(NC(=O)c3ccncc3)ncnc21 (stereo partly drawn) [Compound 34, methyl(((5-(hydroxymethyl)-2-(6-(isonicotinamide)-9H-purin-9-yl)tetrahydrofuran-3-yl)oxy)(phenoxy)phosphoryl)alanine salt]
IC50 [4, 8]: 24.2 µM | IC50 ([5]; MTT, 72 hours, AGS): 19.4 µM | tumor volume [7]: about 240 mm^3
